What was measured:
peanut [1] = test: peanut field study, yield per acre; assay type: in vivo
Source text: (§1) A peanut field was fumigated on April 28 with Metam sodium to control Cylindrocladium. The test plants were planted on May 22 with 16 different varieties of seed (Andru 93; Georgia Green; Tam Run 98; AT120; Southern Runner; Georgia Gold; Georgia Runner; 6K7WIDLEIL; FLA97R; FLAMDR98; FLA84x9B; NC7; VA93B; Perry; VA92R; VA98R), with a two-row planter. Temik and rhizobium were applied in furrow at standard rates. The spray date for the first treatment was July 20; the spray date for the second treatment was August 19. A tractor-mounted sprayer was used for all treatment sprays, with three hollow-cone nozzles per row at 40 psi, and 15 gal water/acre, at a height to cover the entire plant. Only the two treatment rows were sprayed. There were two unsprayed border rows between each treatment, to minimize interplot interference, and to assure even distribution of disease across plots. Herbicides, insecticides, and early leafspot control were applied according to standard practices across the field. Particular treatments were as follows:
(§2) (2) 15.22 fl. oz. Omega 500™ fluazinam 500F/acre (per spray)
(§3) (3) 30.44 fl. oz. Omega 500™ fluazinam 500F/acre (per spray)
(§4) (4) 60.88 fl. oz. Omega 500™ fluazinam 500F/acre (per spray)
(§5) (5) 32.0 fl. oz. Rovral™ brand iprodione+7.68 fl. oz. Nufilm™ adjuvant per acre (per spray)
Peanuts were dug on November 10, and harvested on November 15. Moisture samples were taken from untreated plots of each variety. Yields were adjusted to 9% moisture.
(§6) Data: Statistics were run using the SAS System using the General Linear Models Procedure.

Sclerotinia blight = test: peanut field study, disease incidence; assay type: in vivo
Source text: as §1, §2, §3, §4, §5, §6

[2] = pH 7; cited from earlier work
peanut [3] = test: peanut field study, frost injury rating; assay type: in vivo; conditions: for Frost Injury, Pr > |T|: frost 66 days after last spray
Source text: as §1, §2, §3, §4, §5
Frost occurred on October 25. Frost ratings were done on November 2d. Rating Index: 1<5% green leaves, 4>50% green leaves; values between 1 and 4 were scaled from 5 to 50%. Stems were not rated, and varied from completely brown, to black, to bright green. When rating percentage of green leaves in a plot, those obviously dead from disease were ignored, and the rating was based on the remaining leaves.
as §6

[4] = treatment effect on various peanut cultivars

## O=[N+]([O-])c1cc(C(F)(F)F)c(Cl)c([N+](=O)[O-])c1Nc1ncc(C(F)(F)F)cc1Cl [fluazinam]
Peanut [1]; High Rate vs Control
  Yield/Acre, Pr > |T|: 0.0001
Peanut [1]; High Rate vs Rovral
  Yield/Acre, Pr > |T|: 0.0001
Peanut [1]; high rate, vs both Untreated Control and Rovral
  yields: statistically significantly higher
Peanut [1]; treatment effect
  yields: significantly higher
Sclerotinia blight; High Rate vs Control
  Disease Incidence, Pr > |T|: 0.0001
Sclerotinia blight; High Rate vs Rovral
  Disease Incidence, Pr > |T|: 0.3911
  disease control: not significantly better
Sclerotinia blight; high rate, vs Untreated Control
  disease control: statistically significantly better disease control
Sclerotinia blight; [4]
  Sclerotinia blight: significantly reduced
[2]
  water solubility: 0.071 ppm
Peanut [3]; High Rate vs Control
  Frost Injury, Pr > |T|: 0.0001
Peanut [3]; High Rate vs Rovral
  Frost Injury, Pr > |T|: 0.0001
Peanut [3]; high rate, compared to both Untreated Control and Rovral
  frost protection: statistically significantly better frost protection
Peanut [3]; [4]
  frost injury: significantly reduced
